Test results reported in patent US8697865B2, “Cyclic amide derivative, and its production and use” (Takeda Pharmaceutical Company Limited, priority 2004, dated 2014).
Where a name gives a salt, the structure may show the parent alone.

Assays:
[1] = target: human FXa (Homo sapiens, UniProt P00742); assay: Inhibitory action of human activated blood coagulation factor X (FXa); format: biochemical; details: chromogenic substrate S-2765, 37° C., absorbance at 405 nm, read-out: IC50 (concentration inhibiting FXa activity by 50%)
Sequence of human FXa (P00742 235-488 limits assumed): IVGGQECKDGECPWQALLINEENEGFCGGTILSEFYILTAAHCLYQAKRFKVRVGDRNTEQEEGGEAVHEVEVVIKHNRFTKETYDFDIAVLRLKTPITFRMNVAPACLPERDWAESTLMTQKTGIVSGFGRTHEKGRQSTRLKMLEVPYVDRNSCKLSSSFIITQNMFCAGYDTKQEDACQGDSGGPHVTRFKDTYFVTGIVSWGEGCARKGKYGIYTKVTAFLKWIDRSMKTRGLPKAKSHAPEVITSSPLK
Sequence of human FXa (P00742 41-179 partner limits assumed): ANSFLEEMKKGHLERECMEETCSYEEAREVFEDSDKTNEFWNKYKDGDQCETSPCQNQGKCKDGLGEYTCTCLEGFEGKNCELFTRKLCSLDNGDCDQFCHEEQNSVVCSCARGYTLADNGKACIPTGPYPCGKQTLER

| IC50 [1] | melting point | SMILES |
| --- | --- | --- |
| 6.6 nM | 198 °C | O=C([C@H](O)CS(=O)(=O)c1ccc2cc(Cl)ccc2c1)N1CCN(N2CCCCC2=O)CC1 [Example 8, 1-(4-{(2S)-3-[(6-Chloronaphthalen-2-yl)sulfonyl]-2-hydroxypropanoyl}piperazin-1-yl)piperidin-2-one] |
| 4.2 nM | – | O=C([C@H](O)CS(=O)(=O)c1ccc2cc(Cl)ccc2c1)N1CCN(N2CCCNC2=O)CC1 [Example 25, 1-(4-{(2S)-3-[(6-Chloronaphthalen-2-yl)sulfonyl]-2-hydroxypropanoyl}piperazin-1-yl)tetrahydropyrimidin-2(1H)-one] |
| 9.9 nM | – | O=C(CCS(=O)(=O)c1ccc2cc(Cl)ccc2c1)N1CCN(N2CCCNC2=O)CC1 [Example 33, 1-(1-{3-[(6-Chloronaphthalen-2-yl)sulfonyl]propanoyl}piperazin-4-yl)tetrahydropyrimidin-2(1H)-one] |
| 4.8 nM | – | N=C1CCCCN1C1CCN(C(=O)[C@H](O)CS(=O)(=O)c2ccc3cc(Cl)ccc3c2)CC1 [Example 43, (2S)-3-[(6-Chloronaphthalen-2-yl)sulfonyl]-1-(2-imino-1,4′-bipiperidin-1′-yl)-1-oxopropan-2-ol trifluoroacetate] |
